The nature of the data set: in vitro. The conditions noted are these: human, hela cells, % viability.

By viability is commonly meant a read-out of living cells in per cent, often relative to untreated cells.

In the case of `CN1C(=O)COc2ccccc2CCCC[C@@H]2[C@H]1CCCN2C(=O)CCCn1cncn1` [CBK292182], the viability at 28.5 h, 10 µM was found to be 95.3%.

As for `CN(C)CCCN(Cc1ccco1)Cc1c[nH]nc1-c1cccs1` [CBK283198], the viability at 28.5 h, 10 µM stood at 106%.

On to `Clc1ccc(CN2CCN(Cc3ccc(Cl)cc3)C2c2ccncc2)cc1` [CBK265207], for which the viability at 28.5 h, 10 µM worked out at 104%.

Consider `CC(C)[C@H](NC(=O)Cc1n[nH]c(=O)c2ccccc12)C(=O)O` [CBK286607], for which the viability at 28.5 h, 10 µM was found to be 95.2%.

Turning to `CN(Cc1ccccc1)Cc1nc2c([nH]1)c(=O)[nH]c(=O)n2C` [CBK269442], the viability at 28.5 h, 10 µM was 106%.

For `O=C(CN1C(=O)c2ccccc2S1(=O)=O)Nc1ccccc1C(=O)N1CCOCC1` [CBK266975], the viability at 28.5 h, 10 µM is 93.3%.

Take `O=C(Cc1ccccc1)N1CCCC1c1n[nH]cc1-c1ccncc1` (centres unmarked) [CBK283435]: the viability at 28.5 h, 10 µM was 85.7%.

`NS(=O)(=O)c1ccc(CCNS(=O)(=O)c2ccccc2[N+](=O)[O-])cc1` [CBK264369]: the viability at 28.5 h, 10 µM stood at 111%.

In the case of `COc1ccc(C(=O)N2CCN(c3cnn(C)c(=O)c3Cl)CC2)cc1` [CBK305720], the viability at 28.5 h, 10 µM stood at 84.8%.

With `CCCCc1c(O)[nH]c2nc3ccccc3n2c1=O` [CBK287875], the viability at 28.5 h, 10 µM was determined as 98.1%.

`Cc1cc(C)cc(N(CC(=O)Nc2ccc(C)c(Cl)c2)S(=O)(=O)c2ccccc2)c1` [CBK264109]: the viability at 28.5 h, 10 µM is 98.9%.

`O=C(c1cc(-c2ccc(Cl)cc2)nc2ccccc12)n1nnc2ccccc21` [CBK264640]: the viability at 28.5 h, 10 µM stood at 101%.

With `COc1cc(OC)nc(CC(=O)O)n1` [CBK103537], the viability at 28.5 h, 10 µM came out at 104%.

For the compound `COc1ccc(C(=O)C2=C(O)C(=O)N(Cc3cccnc3)C2c2cccc([N+](=O)[O-])c2)cc1` (centres unmarked) [CBK264661], the viability at 28.5 h, 10 µM turned out to be 99.5%.

Consider `O=C(Nc1ccc(C(=O)O)cc1)/C(=C\c1ccco1)NC(=O)c1ccccc1Cl` [CBK263726], for which the viability at 28.5 h, 10 µM is 113%.

Take `COC(=O)C1(Cc2cc(-c3ccccc3F)no2)CCOCC1` [CBK285182]: the viability at 28.5 h, 10 µM came to 87.8%.

Consider `COCC(C)NS(=O)(=O)c1cc(Cl)ccc1OC` (centres unmarked) [CBK270203], for which the viability at 28.5 h, 10 µM stood at 90.7%.

For the compound `COc1cccc2cc(C(=O)NCC3COc4ccccc4O3)oc12` (centres unmarked) [CBK149791], the viability at 28.5 h, 10 µM amounted to 109%.

Take `Cc1oc(-c2ccccc2)nc1C(=O)O` [CBK047490]: the viability at 28.5 h, 10 µM was found to be 98.4%.

On to `O=C(c1ccnc2ccccc12)N1CCc2ccccc21` [CBK200283], for which the viability at 28.5 h, 10 µM turned out to be 103%.

For `C[C@@H](Nc1nc(-c2ccccc2)cnc1N)c1ccccc1` [CBK063728], the viability at 28.5 h, 10 µM amounted to 98.9%.

Take `Clc1cc(-c2cnc3ccccc3n2)c(Cl)s1` [CBK006186]: the viability at 28.5 h, 10 µM stood at 85.4%.

Turning to `C[C@H](Cn1nc2c(cc1=O)CCCCC2)NC(=O)Cc1cccs1` [CBK284548], the viability at 28.5 h, 10 µM was found to be 100%.

`Cn1cc(C(=O)N2CCCC(c3cc4ccccc4cn3)C2)cn1` (centres unmarked) [CBK285155]: the viability at 28.5 h, 10 µM came out at 106%.

As to `N#CC1=C(N)Oc2cc(O)ccc2C1c1ccccc1` (centres unmarked) [CBK219303], the viability at 28.5 h, 10 µM turned out to be 90.3%.

Turning to `Cc1ccnc(NS(=O)(=O)c2ccc(NC(=O)c3cc(-c4ccc(Br)cc4)nc4ccccc34)cc2)n1` [CBK263650], the viability at 28.5 h, 10 µM was determined as 96.8%.

`S=c1ccc(N/N=C/C2CC=CCC2)n[nH]1` (centres unmarked) [CBK018655]: the viability at 28.5 h, 10 µM worked out at 95.3%.

Take `COC(=O)CCc1ccc(S(=O)(=O)N2CCN(Cc3cccc4cccnc34)CC2)cc1` [CBK062969]: the viability at 28.5 h, 10 µM worked out at 87.8%.

In the case of `O=C(CCN1C(=O)c2ccccc2C1=O)N1CCOCCOCCN(C(=O)CCN2C(=O)c3ccccc3C2=O)CCOCCOCC1` [CBK260964], the viability at 28.5 h, 10 µM amounted to 89.9%.

Consider `CNC(=O)CC1CCN(c2cc(C#N)ccc2C(F)(F)F)CC1` [CBK306450], for which the viability at 28.5 h, 10 µM came to 112%.

Turning to `CCc1ccc2c(c1)C(CCNC(=O)c1c(C)noc1C(F)F)C(=O)N2` (centres unmarked) [CBK304090], the viability at 28.5 h, 10 µM was found to be 95.1%.

Take `O=C(CCc1ccccc1)NNC(=O)C1CC1c1ccccc1` (centres unmarked) [CBK261292]: the viability at 28.5 h, 10 µM is 114%.

As to `Oc1nnc(-c2ccc(Cl)c(Cl)c2)n1C1CCCCC1` [CBK074888], the viability at 28.5 h, 10 µM was 97.9%.

With `O=C1/C(=C/NNc2nc3ccccc3s2)Sc2ccccc21` [CBK261627], the viability at 28.5 h, 10 µM worked out at 96.4%.

For `Cc1ccc(C)c(S(=O)(=O)NC(Cc2c[nH]c3ccccc23)C(=O)O)c1` (centres unmarked) [CBK266816], the viability at 28.5 h, 10 µM turned out to be 105%.

On to `CN1CCN(C(=O)c2cnc3cc(C(F)(F)F)ccc3c2O)CC1` [CBK107423], for which the viability at 28.5 h, 10 µM was 105%.

For the compound `O=C(NC1(c2ccc(F)cc2)CCCC1)c1cnn2cccnc12` [CBK283612], the viability at 28.5 h, 10 µM came out at 97.4%.

Regarding `O=C(CCCc1c[nH]c2ccccc12)N1CCn2c(nnc2C2CC2)C1` [CBK283689], the viability at 28.5 h, 10 µM amounted to 96.6%.

In the case of `O=C1NC(=O)C(CCCCN2CCCC3(CCN(C(=O)c4cc(F)c(F)cc4F)C3)C2)N1` (centres unmarked) [CBK132020], the viability at 28.5 h, 10 µM came out at 97.5%.

With `CCOC(=O)c1cnc2nc3ccccc3n2c1C` [CBK270185], the viability at 28.5 h, 10 µM was found to be 95.4%.

In the case of `Cn1cnc2c1c(=O)n(CCCN1C(=O)C3(CC(=O)N(Cc4ccccc4)C3=O)c3cc(F)ccc31)c(=O)n2C` (centres unmarked) [CBK075717], the viability at 28.5 h, 10 µM is 76%.

For `O=C(Nc1cc2ccccc2c(N2CCNCC2)n1)c1ccccc1` [CBK028423T], the viability at 28.5 h, 10 µM came out at 104%.

On to `COc1ccc(C(=O)c2ccc(N3CCN(C4CC(=O)NC4=O)CC3)cc2)cc1F` (centres unmarked) [CBK268909], for which the viability at 28.5 h, 10 µM was determined as 94.2%.

For `Cc1cccc(C(=O)NNC(=O)c2cccc(Cl)c2)c1` [CBK261676], the viability at 28.5 h, 10 µM stood at 107%.

Regarding `CC(=O)Nc1ccc(S(=O)(=O)NCC#N)cc1Cl` [CBK045102], the viability at 28.5 h, 10 µM was found to be 97.3%.

For `O=C(CCc1ccccc1)NNC(=O)C1C2C=CC(C2)C1C(=O)O` (centres unmarked) [CBK267541], the viability at 28.5 h, 10 µM stood at 94.2%.

With `Cc1ccnc(-n2sc3ccccc3c2=O)n1` [CBK116499], the viability at 28.5 h, 10 µM turned out to be 97.1%.

Turning to `O=C(Nc1ccccc1[N+](=O)[O-])c1cc(S(=O)(=O)NCc2ccccc2)c(Cl)cc1Cl` [CBK263240], the viability at 28.5 h, 10 µM was 91.5%.

As for `C=CCc1cccc(Cl)c1OCCN1CCN(C)CC1` [CBK269734C], the viability at 28.5 h, 10 µM was determined as 90.5%.

`CS(=O)(=O)c1ccc(-c2cnc(N)c3ncccc23)cc1` [CBK067593]: the viability at 28.5 h, 10 µM came out at 90.5%.

`O=C1CCC(C(=O)N2CC3(CCCC3)c3c(F)cccc32)CN1` (centres unmarked) [CBK304914]: the viability at 28.5 h, 10 µM amounted to 85.7%.

Turning to `COc1ccc2c(C)c(CCC(=O)N(C)CC(=O)O)c(=O)oc2c1` [CBK286731], the viability at 28.5 h, 10 µM was found to be 87%.

`Cc1occc1-c1nnc(SCC(=O)Nc2ccccc2)n1C` [CBK270308]: the viability at 28.5 h, 10 µM worked out at 84.9%.

`N#Cc1c(NC(=O)c2cccnc2)sc2c1CCCCC2` [CBK287584]: the viability at 28.5 h, 10 µM turned out to be 98.6%.

In the case of `Clc1cc(NCCc2c[nH]c3ccccc23)n2nccc2n1` [CBK037218], the viability at 28.5 h, 10 µM worked out at 40.6%.

Consider `COc1ccc(Sc2nc3cc(Cl)c(Cl)cc3nc2NC(C)C)cc1OC` [CBK093792], for which the viability at 28.5 h, 10 µM is 103%.

Consider `Cc1ccc(NCC2CCN(CC(=O)Nc3cc(C)on3)C2)nc1` (centres unmarked) [CBK306337], for which the viability at 28.5 h, 10 µM was determined as 95.5%.

Take `O=C(CC(NC1CCCC1)C(=O)O)Nc1ccc(F)cc1` (centres unmarked) [CBK266976]: the viability at 28.5 h, 10 µM was 93.9%.

As to `Cc1ccc(S(=O)(=O)N(CC(O)Cn2c3ccc(Cl)cc3c3cc(Cl)ccc32)c2ccccc2)cc1` (centres unmarked) [CBK263353], the viability at 28.5 h, 10 µM turned out to be 92.2%.

`COc1ccccc1OCCO` [CBK000949]: the viability at 28.5 h, 10 µM worked out at 98.3%.

In the case of `CC1CC(NC(=S)NCc2csc3ccccc23)CC(C)(C)C1` (centres unmarked) [CBK013824], the viability at 28.5 h, 10 µM was found to be 90.9%.

`CCN(Cc1ccccc1)C(=O)Nc1ccc2c(c1)OCCO2` [CBK155231]: the viability at 28.5 h, 10 µM turned out to be 100%.

In the case of `O=C(N/N=C/c1ccc(O)cc1)c1c[nH]c2ccccc12` [CBK262193], the viability at 28.5 h, 10 µM is 91.4%.

`Cc1noc(C)c1NC(=O)c1c(C)noc1C` [CBK200305]: the viability at 28.5 h, 10 µM was found to be 96.4%.

Regarding `Cc1cccc(-c2ccc3c(c2)C(=O)N2CC[C@H](NC(=O)N4CCOCC4)[C@H]2C(=O)N3)c1C` [CBK289347], the viability at 28.5 h, 10 µM was 88.1%.

As for `CCN1CCN(C(=O)CN(Cc2ccc(F)cc2)S(=O)(=O)c2ccccc2)CC1` [CBK266612], the viability at 28.5 h, 10 µM worked out at 96.8%.

On to `COc1nccnc1OC1CCN(CCOc2ccccc2)CC1` [CBK084260], for which the viability at 28.5 h, 10 µM worked out at 94.4%.

On to `O=C(c1cccc(O)c1)N1CCN(Cc2cn3ccsc3n2)CC1` [CBK305275], for which the viability at 28.5 h, 10 µM was determined as 76%.

For `CC(C)(CN)CN(Cc1ccccc1C(F)(F)F)C(=O)Nc1c(F)cccc1F` [CBK026822C], the viability at 28.5 h, 10 µM is 109%.

For `COC(=O)CNC(=O)c1cc(-c2ccc(C)s2)nc2c1cnn2C(C)C` [CBK305040], the viability at 28.5 h, 10 µM turned out to be 99.5%.

`O=[N+]([O-])c1ccc(N2CCNCC2)cc1NCc1ccccn1` [CBK268074]: the viability at 28.5 h, 10 µM came to 122%.

Regarding `CN(C)CCN(C)c1cncc(-c2cccs2)n1` [CBK065679], the viability at 28.5 h, 10 µM came to 108%.

Consider `CCCc1nn(CC(=O)NC2CC2)c(=O)c2cc3ccsc3n12` [CBK284146], for which the viability at 28.5 h, 10 µM came out at 85.3%.

As for `O=[N+]([O-])c1cc(F)ccc1Oc1cccc(C(F)(F)F)c1` [CBK002802], the viability at 28.5 h, 10 µM was found to be 91.9%.

In the case of `Cc1nnc(SCCn2c(N3CC(C)CC(C)C3)nc3c2c(=O)n(C)c(=O)n3C)s1` (centres unmarked) [CBK269419], the viability at 28.5 h, 10 µM was determined as 100%.

As to `COc1ccc(/C=N/c2cc(S(=O)(=O)c3ccc(O)c(/N=C/c4ccc(OC)c(O)c4)c3)ccc2O)cc1O` [CBK261223], the viability at 28.5 h, 10 µM stood at 92.3%.

For the compound `Cc1c(NC2CCN(c3ccc(C#N)cc3)C2=O)cnn1C1CCCC1` (centres unmarked) [CBK304735], the viability at 28.5 h, 10 µM is 113%.

`O=C(O)CCCn1cc(NC(=O)c2ccccc2Br)cn1` [CBK270100]: the viability at 28.5 h, 10 µM amounted to 82.9%.

Take `CC1(C(=O)O)COC(c2ccc([N+](=O)[O-])cc2)OC1` (centres unmarked) [CBK286737]: the viability at 28.5 h, 10 µM stood at 87.1%.

As for `Cc1noc(C)c1C(=O)N1CCOCC1` [CBK057765], the viability at 28.5 h, 10 µM came out at 80.5%.

For the origin of these results see PMC12040169 (PLOS Biology, 2025).
